{"source": "patent US20150266878A1", "about": "“NOVEL BI-RING PHENYL-PYRIDINES/PYRAZINES FOR THE TREATMENT OF CANCER” (HOFFMANN-LA ROCHE INC., priority 2012, published 2015)", "note": "pIC50: −log10 of the molar value.", "data": [{"biological_target": "T1, CDK8/Cyclin C (Homo sapiens, UniProt P49336)", "T1 construct": "purchased Invitrogen PV4402", "T1 sequence (P49336 whole entry)": "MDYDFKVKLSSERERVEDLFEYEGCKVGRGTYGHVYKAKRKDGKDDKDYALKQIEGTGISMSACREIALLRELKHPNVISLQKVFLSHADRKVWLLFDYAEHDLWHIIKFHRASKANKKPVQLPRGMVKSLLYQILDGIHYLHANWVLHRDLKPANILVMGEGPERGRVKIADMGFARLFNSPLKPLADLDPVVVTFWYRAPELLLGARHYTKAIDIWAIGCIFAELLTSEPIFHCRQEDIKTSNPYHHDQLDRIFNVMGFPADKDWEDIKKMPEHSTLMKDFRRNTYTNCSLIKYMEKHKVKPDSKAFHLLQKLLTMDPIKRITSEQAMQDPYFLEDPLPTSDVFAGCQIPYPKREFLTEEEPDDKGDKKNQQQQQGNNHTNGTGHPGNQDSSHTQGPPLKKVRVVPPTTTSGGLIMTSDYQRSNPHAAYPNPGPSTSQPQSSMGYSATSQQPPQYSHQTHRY", "T1 sequence (P24863 whole entry partner)": "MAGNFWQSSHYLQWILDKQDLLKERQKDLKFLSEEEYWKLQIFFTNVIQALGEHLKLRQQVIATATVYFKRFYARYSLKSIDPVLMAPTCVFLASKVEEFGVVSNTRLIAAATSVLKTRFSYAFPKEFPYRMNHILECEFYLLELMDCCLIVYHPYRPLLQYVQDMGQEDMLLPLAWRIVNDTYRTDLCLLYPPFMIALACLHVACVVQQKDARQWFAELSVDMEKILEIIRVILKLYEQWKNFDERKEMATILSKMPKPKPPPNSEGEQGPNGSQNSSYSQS", "test": "CDK8/Cyclin C LANCE TR-FRET kinase assay", "type": "biochemical", "details": "CDK8/Cyclin C 10 nM, ATP 24 μM, Ulight-GS peptide 80 nM, 37° C. 30 mins", "from_the_text": "CDK8/Cyclin C LANCE TR-FRET Kinase Assay:\nThe biological activity of the compounds of the invention can be determined using the assay described below.\nCDK8/Cyclin C protein was obtained from Invitrogen, cat #PV4402. ULight-Glycogen Synthase (Ulight-GS) peptide with sequence PASVPPSPSLSRHSSPHQ(pS)ED, and Europium-anti-phospho Glycogen Synthase (Ser641) [Eu-anti-P-GS (Ser641)] were obtained from Perkin Elmer, cat #TRF0131-M and cat #TRF0220. Adenosine-5′-triphosphate (ATP) was obtained from Invitrogen, cat #PV3227.\nA mixture of (1) a compound of formula I, (2) substrate [Ulight-GS peptide (80 nM) and ATP (24 μM)], and (3) CDK8/Cyclin C (10 nM) in reaction buffer (50 mM Hepes, pH7.0, 10 mM MgCl2, 1 mM EGTA, 0.2 mg/mL BSA, 0.8 mM DTT) were incubated at 37° C. for 30 mins. Then, [Eu-anti-P-GS (Ser641)] (1.5 nM) was added. Following incubation at room temperature for 30 mins, the TR-FRET signals were detected using Envision reader (Ex 340 nm, Em 615 nm and 665 nm) from Perkin Elmer. The reactivity in percentage of inhibition or dose response was analyzed with GraphPad Prism 5 (GraphPad Software).", "values": [{"smiles": "CC1(C)C(=O)Nc2ccc(-c3cncc(N[C@@H](CO)c4ccccc4)c3)cc21", "note": "[Example 2, 5-[5-((R)-2-Hydroxy-1-phenyl-ethylamino)-pyridin-3-yl]-3,3-dimethyl-1,3-dihydro-indol-2-one]", "pIC50": 6.88}, {"smiles": "O=C1Cc2cc(-c3cncc(N[C@@H](CO)c4ccccc4Cl)c3)ccc2N1", "note": "[Example 3, 5-{5-[(R)-1-(2-Chloro-phenyl)-2-hydroxy-ethylamino]-pyridin-3-yl}-1,3-dihydro-indol-2-one]", "pIC50": 8.68}, {"smiles": "O=C1Cc2cc(-c3cncc(N[C@H](CO)c4ccccc4Cl)c3)ccc2N1", "note": "[Example 4, 5-{5-[(S)-1-(2-Chloro-phenyl)-2-hydroxy-ethylamino]-pyridin-3-yl}-1,3-dihydro-indol-2-one]", "pIC50": 6.80}, {"smiles": "O=c1[nH]c2ccc(-c3cncc(N[C@@H](CO)c4ccccc4)c3)cc2[nH]1", "note": "[Example 5, 5-[5-((R)-2-Hydroxy-1-phenyl-ethylamino)-pyridin-3-yl]-1,3-dihydro-benzoimidazol-2-one]", "pIC50": 8.96}, {"smiles": "O=C1Nc2ccc(-c3cncc(N[C@@H](CO)c4ccccc4)c3)cc2C12CC2", "note": "[Example 6, (R)-5′-(5-((2-Hydroxy-1-phenylethyl)amino)pyridin-3-yl)-spiro[cyclopropane-1,3′-indolin]-2′-one]", "pIC50": 8.54}, {"smiles": "O=C1Cc2cc(-c3cncc(N[C@@H](CO)c4ccccc4)c3)cnc2N1", "note": "[Example 7, 5-[5-((R)-2-Hydroxy-1-phenyl-ethylamino)-pyridin-3-yl]-1,3-dihydro-pyrrolo[2,3-b]pyridin-2-one]", "pIC50": 6.50}, {"smiles": "O=C1Nc2ccc(-c3cncc(N[C@@H](CO)c4ccccc4)c3)cc2C1(F)F", "note": "[Example 8, 3,3-Difluoro-5-[5-((R)-2-hydroxy-1-phenyl-ethylamino)-pyridin-3-yl]-1,3-dihydro-indol-2-one]", "pIC50": 7.42}, {"smiles": "O=C1Cc2nc(-c3cncc(N[C@@H](CO)c4ccccc4)c3)ccc2N1", "note": "[Example 9, 5-[5-((R)-2-Hydroxy-1-phenyl-ethylamino)-pyridin-3-yl]-1,3-dihydro-pyrrolo[3,2-b]pyridin-2-one]", "pIC50": 7.09}, {"smiles": "O=C1Cc2cc(-c3cncc(N[C@@H](CO)c4ccccc4)c3)c(F)cc2N1", "note": "[Example 10, 6-Fluoro-5-[5-((R)-2-hydroxy-1-phenyl-ethylamino)-pyridin-3-yl]-1,3-dihydro-indol-2-one]", "pIC50": 9.30}, {"smiles": "O=C1Cc2cc(-c3cncc(N[C@@H](CO)c4ccccc4)c3)cc(F)c2N1", "note": "[Example 11, 7-Fluoro-5-[5-((R)-2-hydroxy-1-phenyl-ethylamino)-pyridin-3-yl]-1,3-dihydro-indol-2-one]", "pIC50": 7.56}, {"smiles": "O=c1[nH]c2ccc(-c3cncc(N[C@@H](CO)c4ccccc4)c3)cc2o1", "note": "[Example 12, 6-[5-((R)-2-Hydroxy-1-phenyl-ethylamino)-pyridin-3-yl]-3H-benzooxazol-2-one]", "pIC50": 8.42}, {"smiles": "O=c1[nH]c2ccc(-c3cncc(N[C@@H](CO)c4ccccc4)c3)cc2s1", "note": "[Example 13, 6-[5-((R)-2-Hydroxy-1-phenyl-ethylamino)-pyridin-3-yl]-3H-benzothiazol-2-one]", "pIC50": 8.11}, {"smiles": "OC[C@H](Nc1cncc(-c2ccc3c(c2)OCO3)c1)c1ccccc1", "note": "[Example 14, (R)-2-(5-Benzo[1,3]dioxol-5-yl-pyridin-3-ylamino)-2-phenyl-ethanol]", "pIC50": 7.33}, {"smiles": "OC[C@H](Nc1cncc(-c2ccc3c(c2)OCCO3)c1)c1ccccc1", "note": "[Example 15, (R)-2-[5-(2,3-Dihydro-benzo[1,4]dioxin-6-yl)-pyridin-3-ylamino]-2-phenyl-ethanol]", "pIC50": 6.46}, {"smiles": "OC[C@H](Nc1cncc(-c2cccc3[nH]ccc23)c1)c1ccccc1", "note": "[Example 17, (R)-2-[5-(1H-Indol-4-yl)-pyridin-3-ylamino]-2-phenyl-ethanol]", "pIC50": 6.72}, {"smiles": "Nc1n[nH]c2ccc(-c3cncc(N[C@@H](CO)c4ccccc4)c3)cc12", "note": "[Example 18, (R)-2-[5-(3-Amino-1H-indazol-5-yl)-pyridin-3-ylamino]-2-phenyl-ethanol]", "pIC50": 9.10}, {"smiles": "OC[C@H](Nc1cncc(-c2ccc3[nH]nc(F)c3c2)c1)c1ccccc1", "note": "[Example 19]", "pIC50": 8.74}, {"smiles": "Cc1n[nH]c2ccc(-c3cncc(N[C@@H](CO)c4ccccc4)c3)cc12", "note": "[Example 20, (R)-2-[5-(3-Methyl-1H-indazol-5-yl)-pyridin-3-ylamino]-2-phenyl-ethanol]", "pIC50": 9.30}, {"smiles": "CCc1n[nH]c2ccc(-c3cncc(N[C@@H](CO)c4ccccc4)c3)cc12", "note": "[Example 21, (R)-2-[5-(3-Ethyl-1H-indazol-5-yl)-pyridin-3-ylamino]-2-phenyl-ethanol]", "pIC50": 8.82}, {"smiles": "CSc1n[nH]c2ccc(-c3cncc(N[C@@H](CO)c4ccccc4)c3)cc12", "note": "[Example 22, (R)-2-[5-(3-Methylsulfanyl-1H-indazol-5-yl)-pyridin-3-ylamino]-2-phenyl-ethanol]", "pIC50": 9.30}, {"smiles": "CS(=O)(=O)c1n[nH]c2ccc(-c3cncc(N[C@@H](CO)c4ccccc4)c3)cc12", "note": "[Example 23, (R)-2-[5-(3-Methanesulfonyl-1H-indazol-5-yl)-pyridin-3-ylamino]-2-phenyl-ethanol]", "pIC50": 8.49}, {"smiles": "OC[C@H](Nc1cncc(-c2cnc3[nH]ncc3c2)c1)c1ccccc1", "note": "[Example 24, (R)-2-Phenyl-2-[5-(1H-pyrazolo[3,4-b]pyridin-5-yl)-pyridin-3-ylamino]-ethanol]", "pIC50": 8.96}, {"smiles": "OC[C@H](Nc1cncc(-c2cc3cn[nH]c3cn2)c1)c1ccccc1", "note": "[Example 25, (R)-2-Phenyl-2-[5-(1H-pyrazolo[3,4-c]pyridin-5-yl)-pyridin-3-ylamino]-ethanol]", "pIC50": 9.15}, {"smiles": "OC[C@H](Nc1cncc(-c2ccc3[nH]nnc3c2)c1)c1ccccc1", "note": "[Example 26, (R)-2-[5-(1H-Benzotriazol-5-yl)-pyridin-3-ylamino]-2-phenyl-ethanol]", "pIC50": 8.03}, {"smiles": "OC[C@H](Nc1cncc(-c2ccc3[nH]ncc3n2)c1)c1ccccc1", "note": "[Example 27, (R)-2-Phenyl-2-[5-(1H-pyrazolo[4,3-b]pyridin-5-yl)-pyridin-3-ylamino]-ethanol]", "pIC50": 8.01}, {"smiles": "OC[C@H](Nc1cncc(-c2ccc3[nH]nc(Cl)c3c2)c1)c1ccccc1", "note": "[Example 28, (R)-2-[5-(3-Chloro-1H-indazol-5-yl)-pyridin-3-ylamino]-2-phenyl-ethanol]", "pIC50": 9.00}, {"smiles": "NC(=O)C(Nc1cncc(-c2ccc3c(c2)CC(=O)N3)c1)c1ccccc1", "note": "(stereo not shown) [Example 29, 2-[5-(2-Oxo-2,3-dihydro-1H-indol-5-yl)-pyridin-3-ylamino]-2-phenyl-acetamide]", "pIC50": 7.17}, {"smiles": "CC(=O)NC[C@H](Nc1cncc(-c2ccc3c(c2)CC(=O)N3)c1)c1ccccc1", "note": "[Example 30, N-{(R)-2-[5-(2-Oxo-2,3-dihydro-1H-indol-5-yl)-pyridin-3-ylamino]-2-phenyl-ethyl}-acetamide]", "pIC50": 7.64}, {"smiles": "NC(=O)C(Nc1cncc(-c2ccc3c(c2)CNC3=O)c1)c1ccccc1", "note": "(stereo not drawn) [Example 31, 2-[5-(l-Oxo-2,3-dihydro-1H-isoindol-5-yl)-pyridin-3-ylamino]-2-phenyl-acetamide]", "pIC50": 6.53}, {"smiles": "CC1(C)C(=O)Nc2ccc(-c3cncc(NC(C(N)=O)c4ccccc4)c3)cc21", "note": "(stereo not shown) [Example 32, 2-[5-(3,3-Dimethyl-2-oxo-2,3-dihydro-1H-indol-5-yl)-pyridin-3-ylamino]-2-phenyl-acetamide]", "pIC50": 6.09}, {"smiles": "NC(=O)C(Nc1cncc(-c2ccc3c(c2)CCC(=O)N3)c1)c1ccccc1", "note": "(stereo not shown) [Example 33, 2-[5-(2-Oxo-1,2,3,4-tetrahydro-quinolin-6-yl)-pyridin-3-ylamino]-2-phenyl-acetamide]", "pIC50": 5.72}]}]}
